Data from US20140220112A1, “TRANSFORMATION OF DRUG CYCLODEXTRIN COMPLEX COMPOSITIONS INTO COMPOSITIONS OF MIXTURES OF LIPID VESICLE ENCAPSULATED DRUG AND CYCLODEXTRIN DRUG COMPLEXES” (Zoneone Pharma, Inc., priority 2013, published 2014).
“And” between values parts separate entries of the source, which are not always exact repeats. Equal values may be shown once.

How the values were obtained:
[1] = Loading of hydroxypropyl cyclodextrin solubilized SN-38 into LUV containing acetate-PEI salt; type: physicochemical; settings: LUV 20 mM total lipid, 12 hours at room temperature
Procedure: Lipids are dissolved in ethanol at a concentration of 500 mM POPC/Cholesterol/PEG-DSPE: 3/2/0.15 (591 mg/mL total lipid) at 65° C. and the 9 volumes of the trapping agent solution, polyethyleneimine (PEI) MW 1300 titrated to pH 7.4 with glacial acetic acid to form the acetate polyethyleneimine salt, is heated to 65° C. then added to the ethanol/lipid solution also at 65° C. This mixture is vortexed and transferred to a 10 mL thermostatically controlled (65° C.) Lipex Extruder. The LUV are formed by extruding 10 times through polycarbonate membranes having 0.1 um pores. After extrusion, the LUV are cooled on ice. A transmembrane electrochemical gradient is formed by placing the liposomes in dialysis tubing having a molecular weight cut off of 12,000-14,000. The samples are dialyzed against 5 mM HEPES, 10% sucrose pH 6.5 (stirring at 4° C.) at volume that is 100-fold greater than the liposome sample volume. The dialysate is changed after 2 h then 4 more times after 12 h each. The conductivity of the liposome solution was measured and was indistinguishable from the dialysis medium ˜40 μS/cm.
The LUV (20 mM total lipid containing a greater concentration of acetate-PEI salt on the inside than on the outside) are mixed with the hydroxypropyl cyclodextrin solubilized SN-38 (24 mg/mL hydroxylpropylcyclodextrin and 2 mg/mL SN-38) and allowed to incubate for 12 hours at room temperature. […]

[2] = Encapsulation of aripiprazole from Abilify (SBECD solution) into LUV, liquid/liquid protocol; type: physicochemical; settings: LUV HSPC/Cholesterol/PEG-DSPE
Procedure: (§1) A portion of the lyophilized cake of GEODON® (Pfizer) was weighed out and dissolved in deionized water. The amount of the active ingredient (ziprasidone) was calculated by multiplying the cake weight by 0.0625 and added to liposomes from a 1 mg/mL solution. In certain experiments the lyophilized cake was reconstituted with the aqueous liposome preparation at defined lipid to drug ratios (liquid/liquid system). In other cases the lyophilized cake was directly rehydrated with the liposome suspension (liquid/solid system). The LUV were diluted with 5 mM Hepes, 10% sucrose pH 6.5. The liposome/drug solution was transferred to a 65° C. bath and swirled every 30 s for the first 3 min and then swirled every 5 min over a total heating time of 30 min. After heating for 30 min all samples were placed on ice for 15 min. the loaded liposomes were vortexed and 100 μL of sample was kept as the “before column” and the rest purified by ion exchange chromatography and gel filtration chromatography. Amberlite IRA-67 anion exchange resin was prepared by washing with 1N NaOH, followed by 3 washes with ddH2O and 3 washes with 3N HCl. The resin was exhaustively washed with dH2O until the pH of the supernatant was neutral. The SBCD was removed by adding 70 mg of resin to the eppendorf containing the liposomes and mixed well. The LUV solution was then purified by gel filtration chromatography (Sephadex G25) to remove residual extraliposomal drug. The turbid liposome fraction was collected and analyzed by HPLC.
ABILIFY® Injection is available in single-dose vials as a ready-to-use, 9.75 mg/1.3 mL (7.5 mg/mL) clear, colorless, sterile, aqueous solution for intramuscular use only. […] The active ingredient in Abilify® (Bristol-Myers), aripiprazole (7.5 mg/mL) was introduced to the LUV (HSPC/Cholesterol/PEG-DSPE: 3/2/0.15 mole ratio) at a drug to total lipid ratio of 50 g drug/mol HSPC (drug to total lipid ratio (wt/wt) of 0.12) or 100 g/mol (0.24 wt/wt) or 200 g/mol (0.48 wt/wt). […]

[3] = Loading of carfilzomib from the lyophilized Kyprolis vial into the core of added LUV; type: physicochemical
Procedure: A 30 mL preparation of LUVs composed of HSPC/Cholesterol/PEG2000-DSPE at lipid concentration of 15 mM lipid (circa 300 mg lipid) is prepared by the extrusion process through 100 nm polycarbonate membranes in a 250 mM ammonium sulfate solution to yield a 100 nm diameter LUV suspension of encapsulated ammonium sulfate. The LUV are dialyzed against 500 volumes of 0.15 M NaCl to remove non-encapsulated ammonium sulfate. The liposome suspension is then passed through a 0.2 micron sterile membrane into a sterile tube. The liposome solution (29 mL) is added aseptically to the vial containing 60 mg of carfilzomib at room temperature. The vial is gently mixed not shaken, for about 1 minute, or until the cake or powder is completely solubilized. The rehydrated solid is incubated for 40 minutes at 37° C. The carfilzomib is substantially loaded (>60%) into the core of the liposome at the end of the incubation period. The 100 nm diameter of the liposomes is not altered by this rehydration incubation process. The temperature of the vial is then reduced to 4° C. until the mixture of CD, drug-loaded liposome are injected into the subject.
The pharmacokinetic behavior of preparation of carfilzomib can be easily modulated by adjusting the amount of LUV containing ammonium sulfate or triethylamine sulfate that are added to the vial of Kyprolis®. […]

[4] = cited from earlier work
[5] = Incorporation of maropitant from Cerenia (SBCD) into lyophilized MLV with encapsulated triethylamine sulfate; type: physicochemical; settings: MLV POPC/Chol/DSPG, 60° C. 30 minutes
Procedure: Maropitant citrate is used for the prevention of acute vomiting in dogs and cats. The MLV formulation described in example 4 is prepared with 250 mM triethylamine sulfate in place of ammonium sulfate. The formulation is lyophilized to provide a cake consisting of 120 mg sucrose and a 1.2 μmoles total lipid of a liposome with a lipid composition of POPC/Chol/DSPG mole ratio 3/2/0.15 with a higher concentration of triethylamine sulfate on the inside than on the outside. The contents of the 20 mL Cerenia® Injectable Solution vial which contains 10 mg maropitant, 63 mg sulphobutylether-beta-cyclodextrin, 3.3 mg meta-cresol per mL is slowly added to the vial of lyophilized liposomes and the vial is slowly rotated to rehydrate the MLV at room temperature. The milky white mixture is allowed to stand at 60° C. for 30 minutes. The percent of the maropitant that is incorporated into the liposome is about 60% of the total maropitant in the vial. […] Approximately 40% of the drug remains associated with the SBCD. This formulation is suitable for subcutaneous injection to prevent vomiting associated with chemotherapy.

[6] = Encapsulation of ziprasidone from Geodon (SBCD complex) into ammonium sulfate LUV liposomes, HPLC after purification; type: physicochemical; settings: 65° C. 30 min; for % ziprasidone entrapped in liposome from suspension of ziprasidone: liquid/liquid system; for % ziprasidone entrapped in liposome from reconstitution of Geodon cake: liquid/solid system
Procedure: Alternatively, lipids were dissolved in ethanol at a concentration of 500 mM HSPC/Cholesterol/PEG-DSPE: 3/2/0.15 (591 mg/mL total lipid) at 65° C. and the 9 volumes of the trapping agent solution heated to 65° C. was added to the ethanol/lipid solution also at 65° C. and the mixture was vortexed and transferred to a 10 mL thermostatically controlled (65° C.) Lipex Extruder. The LUV were formed by extruding 10 times through polycarbonate membranes having 0.1 um pores. After extrusion the liposomes were cooled on ice. The transmembrane electrochemical gradient was formed by purification of the liposomes by dialysis in dialysis tubing having a molecular weight cut off of 12,000-14,000. The samples are dialyzed against 5 mM HEPES, 10% sucrose pH 6.5 (stirring at 4° C.) at volume that is 100 fold greater than the sample volume. The dialysate was changed after 2 h then 4 more times after 12 h each. The conductivity of the liposome solution was measured and was indistinguishable from the dialysis medium […].
The HPLC analysis of all other drugs used (such as ziprasidone, ariprazole, voriconazole etc) was performed on the same system as described for analysis of cholesterol. The mobile phase consists of −A=0.1% TFA, B=0.1% TFA/MeOH with a gradient elution starting at 40% B and increasing to 70% B in 7 min with 6 min equilibration back to 40% B. The flow rate is 1.0 mL/min, column temperature is 30 C, 10 μL injection and detection by absorbance at 254 nm. The retention times were as follows: ziprasidone 5.73 min, ariprazole 8.12 min, voriconazole 8.81 min.
as §1

[7] = input drug-to-lipid 100 ug/umol
[8] = input drug-to-lipid 200 ug/umol

SMILES: CCc1c2c(nc3ccc(O)cc13)-c1cc3c(c(=O)n1C2)COC(=O)[C@]3(O)CC [SN-38, 7-Ethyl-10-Hydroxy-Camptothecin]
- SN-38 transferred into the liposome, % of the added SN-38 [1]: approximately 50%

SMILES: O=C1CCc2ccc(OCCCCN3CCN(c4cccc(Cl)c4Cl)CC3)cc2N1 [aripiprazole]
- % aripiprazole entrapped in liposome when transferred from Abilify ([2]; input drug-to-lipid 50 ug/umol): 60.16 ± 3.57%
- % aripiprazole entrapped in liposome when transferred from Abilify [2, 7]: 48.4% and 48.36 ± 3.78%
- % aripiprazole entrapped in liposome when transferred from Abilify [2, 8]: 43.2% and 43.22 ± 2.09%

SMILES: CC(C)C[C@H](NC(=O)[C@H](CCc1ccccc1)NC(=O)CN1CCOCC1)C(=O)N[C@@H](Cc1ccccc1)C(=O)N[C@@H](CC(C)C)C(=O)[C@@]1(C)CO1 [carfilzomib]
- carfilzomib loaded into the core of the liposome ([3]; Kyprolis vial 60 mg + 29 mL LUV (circa 300 mg lipid), ammonium sulfate, 40 minutes at 37° C.): > 60%
- amount of carfilzomib that remains complexed to the CD, fraction of total amount in the vial ([3]; liposomes added decreased from 300 mg to 200 mg of total lipid): about one-half
- solubility in water [4]: less than 10 micrograms/mL

SMILES: COc1ccc(C(C)(C)C)cc1CN[C@H]1C2CCN(CC2)[C@H]1C(c1ccccc1)c1ccccc1 [maropitant]
- percent of the drug remaining associated with the SBCD [5]: Approximately 40%
- percent of the maropitant incorporated into the liposome, of total maropitant in the vial [5]: about 60%
- resulting drug to lipid ratio [5]: about 140 grams/mole lipid

SMILES: O=C1Cc2cc(CCN3CCN(c4nsc5ccccc45)CC3)c(Cl)cc2N1 [ziprasidone]
- % ziprasidone entrapped in liposome from suspension of ziprasidone ([6]; input drug-to-lipid 50 ug/umol): 87.92 ± 2.35%
- % ziprasidone entrapped in liposome from reconstitution of Geodon cake ([6]; input drug-to-lipid 50 ug/umol): 90.42 ± 2.91%
- % ziprasidone entrapped in liposome from reconstitution of Geodon cake ([6]; input drug-to-lipid 50 ug/umol, listed as Geodon): 90.4%
- % ziprasidone entrapped in liposome from suspension of ziprasidone [6, 7]: 84.24 ± 3.14%
- % ziprasidone entrapped in liposome from reconstitution of Geodon cake [6, 7]: 75.50 ± 2.91%
- % ziprasidone entrapped in liposome from reconstitution of Geodon cake ([6]; input drug-to-lipid 100 ug/umol, listed as Geodon): 75.5%
- % ziprasidone entrapped in liposome from suspension of ziprasidone [6, 8]: 80.38 ± 3.61%
- % ziprasidone entrapped in liposome from suspension of ziprasidone ([6]; input drug-to-lipid 200 ug/umol, listed as Geodon): 80.4%
- % ziprasidone entrapped in liposome from reconstitution of Geodon cake [6, 8]: 62.68 ± 3.27%
- % ziprasidone entrapped in liposome from reconstitution of Geodon cake ([6]; input drug-to-lipid 400 ug/umol): 67.40 ± 3.88%
- % ziprasidone entrapped in liposome from reconstitution of Geodon cake ([6]; input drug-to-lipid 400 ug/umol, listed as Geodon): 67.4%
- % ziprasidone entrapped in liposome from reconstitution of Geodon cake ([6]; input drug-to-lipid 800 ug/umol): 41.38 ± 0.81%
